Results as given in ChEMBL document CHEMBL1126838 (J Med Chem, 1993).

Molecular target: Tyrosine-protein kinase Lck (Homo sapiens, UniProt P06239)
Assay: Tested in vitro for the inhibition of protein-tyrosine kinase p56lck using angiotensin I (1.2 mM) and [gamma-32P]-ATP (50 µM)

Chain of Tyrosine-protein kinase Lck (P06239 whole entry): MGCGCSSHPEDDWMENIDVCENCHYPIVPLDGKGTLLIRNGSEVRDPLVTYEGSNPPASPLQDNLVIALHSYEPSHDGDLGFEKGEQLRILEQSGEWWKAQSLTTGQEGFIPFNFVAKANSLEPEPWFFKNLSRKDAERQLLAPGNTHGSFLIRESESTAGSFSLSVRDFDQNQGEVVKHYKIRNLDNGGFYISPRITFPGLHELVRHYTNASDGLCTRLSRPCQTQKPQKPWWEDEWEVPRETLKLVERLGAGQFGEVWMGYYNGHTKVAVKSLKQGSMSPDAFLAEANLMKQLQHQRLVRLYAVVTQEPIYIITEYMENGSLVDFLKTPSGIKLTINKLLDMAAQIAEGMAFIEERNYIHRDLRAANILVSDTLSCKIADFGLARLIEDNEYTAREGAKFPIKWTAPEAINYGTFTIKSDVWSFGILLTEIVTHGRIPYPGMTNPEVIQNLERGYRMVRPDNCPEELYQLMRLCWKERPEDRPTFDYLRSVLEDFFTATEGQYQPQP

| Compound | IC50 [µM] |
| --- | --- |
| C(=C\c1cc(OCc2ccccc2)cc(OCc2ccccc2)c1)/c1ccc(OCc2ccccc2)cc1 | > 2030 |
| C(=C\c1ccc(OCc2ccccc2)c(OCc2ccccc2)c1)/c1ccc(OCc2ccccc2)cc1 | > 2030 |
| C(=C\c1cc(OCc2ccccc2)cc(OCc2ccccc2)c1)/c1cccc(OCc2ccccc2)c1 | > 2030 |
| C(=C\c1cc(OCc2ccccc2)cc(OCc2ccccc2)c1)/c1ccccc1 | > 2030 |
| C(=C\c1ccc(OCc2ccccc2)c(OCc2ccccc2)c1)/c1ccccc1 | > 2030 |
| C(=C\c1ccc(OCc2ccccc2)c(OCc2ccccc2)c1)/c1cccc(OCc2ccccc2)c1 | > 2030 |
| Oc1cc(O)cc(CCc2ccc(O)c(O)c2)c1 | 1560 |

These reach a lower IC50. Values come first.

| IC50 [µM] | Compound |
| --- | --- |
| 234 | Oc1cccc(/C=C/c2cccc(O)c2)c1 |
| 487 | Oc1cc(O)cc(CCc2cc(O)cc(O)c2)c1 |
| 16 | Oc1cc(O)cc(/C=C/c2cc(O)cc(O)c2)c1 |
| 58 | Oc1cccc(/C=C/c2ccc(O)c(O)c2)c1 |
| 19 | Oc1ccc(/C=C/c2ccc(O)c(O)c2)cc1 |
| 74 | Oc1ccc(/C=C/c2ccc(O)c(O)c2)cc1O |
| 17 | Oc1cccc(/C=C/c2cc(O)cc(O)c2)c1 |
| 203 | Oc1ccc(/C=C/c2ccccc2)cc1O [(E)-3,4-STILBENDIOL] |
| 193 | Oc1cc(O)cc(/C=C/c2ccccc2)c1 [PINOSYLVIN] |
| 112 | Oc1ccc(/C=C/c2cc(O)cc(O)c2)cc1 [RESVERATROL] |
